This note sets out measurements from ChEMBL document CHEMBL1201862, “PubChem BioAssay data set” (2004).

What is called AC50 is the concentration at which the activity in the assay is half-maximal.

Structures are written as SMILES. “And” between values parts separate entries of the source, which are not always exact repeats. Equal values may be shown once. The source made the active and inactive calls. Bounds are passed on as bounds.

One data set addresses T1, Cytochrome P450 1A2 (Homo sapiens, UniProt P05177).
T1 sequence (P05177 whole entry): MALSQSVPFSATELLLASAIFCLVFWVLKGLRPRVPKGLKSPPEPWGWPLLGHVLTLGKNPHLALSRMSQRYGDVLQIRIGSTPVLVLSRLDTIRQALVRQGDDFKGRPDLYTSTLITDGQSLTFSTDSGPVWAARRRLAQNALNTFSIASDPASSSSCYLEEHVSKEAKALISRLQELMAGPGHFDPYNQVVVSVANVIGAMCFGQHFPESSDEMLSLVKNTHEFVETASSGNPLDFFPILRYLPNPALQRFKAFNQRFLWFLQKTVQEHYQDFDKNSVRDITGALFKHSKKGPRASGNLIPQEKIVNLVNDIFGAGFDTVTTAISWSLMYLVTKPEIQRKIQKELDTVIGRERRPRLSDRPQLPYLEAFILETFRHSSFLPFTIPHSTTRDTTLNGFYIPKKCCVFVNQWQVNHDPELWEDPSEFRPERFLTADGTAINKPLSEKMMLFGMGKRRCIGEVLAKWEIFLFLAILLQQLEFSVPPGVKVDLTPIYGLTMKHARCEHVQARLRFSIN

In data set [1] the target is T2, Corticotropin-releasing factor receptor 2/Corticotropin-releasing factor-binding protein (Homo sapiens, UniProt P24387+Q13324).
T2 sequence (Q13324 whole entry): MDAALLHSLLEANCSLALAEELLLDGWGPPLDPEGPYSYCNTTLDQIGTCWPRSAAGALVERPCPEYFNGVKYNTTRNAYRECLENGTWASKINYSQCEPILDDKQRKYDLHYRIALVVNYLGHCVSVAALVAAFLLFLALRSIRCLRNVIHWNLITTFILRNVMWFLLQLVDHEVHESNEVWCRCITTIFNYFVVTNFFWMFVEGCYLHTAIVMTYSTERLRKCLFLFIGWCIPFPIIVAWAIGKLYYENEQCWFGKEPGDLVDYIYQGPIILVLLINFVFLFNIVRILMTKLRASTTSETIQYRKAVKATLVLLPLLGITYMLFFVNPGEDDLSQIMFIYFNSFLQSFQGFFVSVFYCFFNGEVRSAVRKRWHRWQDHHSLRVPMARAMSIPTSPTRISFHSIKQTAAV
T2 sequence (P24387 whole entry): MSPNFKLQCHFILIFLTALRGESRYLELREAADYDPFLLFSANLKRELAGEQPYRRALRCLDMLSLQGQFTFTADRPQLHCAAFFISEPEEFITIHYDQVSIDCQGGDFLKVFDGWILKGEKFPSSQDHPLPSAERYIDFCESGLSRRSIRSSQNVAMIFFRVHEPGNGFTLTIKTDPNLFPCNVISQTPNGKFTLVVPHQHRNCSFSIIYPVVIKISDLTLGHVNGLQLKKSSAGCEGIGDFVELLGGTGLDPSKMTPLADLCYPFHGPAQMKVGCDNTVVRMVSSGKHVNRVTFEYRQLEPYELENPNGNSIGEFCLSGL
In words: activators of CRF receptor 2 with binding protein – uHTS hits, confirmation (AID 602473). Particulars: read-out: EC50_Mean. The format is functional.

The target of the next data set is Cytochrome P450 2C19 (Homo sapiens, UniProt P33261). The data set can be described thus: Cytochrome panel assay with activity outcomes. Panel member name: p450-cyp2c19 Compounds with AC50 equal or less than 10 uM are considered active. The format is functional.
Sequence of Cytochrome P450 2C19 (P33261 whole entry): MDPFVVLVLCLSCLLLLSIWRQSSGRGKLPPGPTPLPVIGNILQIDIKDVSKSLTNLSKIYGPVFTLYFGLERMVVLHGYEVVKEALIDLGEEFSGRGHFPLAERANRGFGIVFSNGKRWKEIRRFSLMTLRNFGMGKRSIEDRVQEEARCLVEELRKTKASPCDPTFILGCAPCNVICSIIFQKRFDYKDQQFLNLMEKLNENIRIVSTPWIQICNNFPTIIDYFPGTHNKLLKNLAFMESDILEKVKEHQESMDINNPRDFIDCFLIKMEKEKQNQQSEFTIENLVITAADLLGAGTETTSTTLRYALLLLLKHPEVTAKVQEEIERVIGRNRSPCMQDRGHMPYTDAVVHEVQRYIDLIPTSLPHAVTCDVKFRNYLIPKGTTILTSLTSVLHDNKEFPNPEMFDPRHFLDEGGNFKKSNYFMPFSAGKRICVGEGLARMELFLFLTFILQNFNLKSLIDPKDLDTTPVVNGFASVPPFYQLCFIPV
Data set [2] is described as follows: inhibitors of intracellular T. cruzi replication, confirmation, NIH3T3 host cells, beta-gal luminescence (AID 2044).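 Further: intracellular parasites grown in NIH/3T3 mouse fibroblasts as host cells; luminescent beta-galactosidase reporter signal from transgenic T. cruzi replicating inside host cells; inhibitors lower the luminescence signal.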 Type of data set: functional, cell-based.
A short description of data set [3]: cytotoxicity toward NIH3T3 fibroblasts, dose response, counter-screen, cell-based, ATP luminescence, mouse fibroblasts (AID 2010).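 Further: cells exposed to compound for about 90 hours before reading.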 Type of data set: functional. For orientation: The purpose of a counterscreen is to sort out artefacts and off-target activity.
A short description of data set [4]: Luminescence Cell-Based Dose Confirmation HTS to Identify Activators of 5'UTR Stem-Loop Driven Alpha-Synuclein mRNA Translation in H4 Neuroglioblastoma Cells. [Related pubchem assays: 1829 (Project Summary), 1814 (Primary HTS)]. Type of data set: functional.
A short description of data set [5]: Luminescence Cell-Based Dose Response HTS to Identify Activators of Luciferase Translation or Activity in H4 […] Cells. [Related pubchem assays: 1829 (Project Summary), 1814 (Primary HTS)]. The format is functional.
In the next data set the test system is H4. In words: Luminescence Cell-Based Dose Response HTS to Identify Activators of 5'UTR Stem-Loop Driven Prion Protein mRNA Translation in H4 Neuroglioblastoma Cells. [Related pubchem assays: 1829 (Project Summary), 1814 (Primary HTS)]. The format is functional. Particulars: Homo sapiens.

On to `Cc1ccc(-c2ccc(CCC(=O)O)o2)cc1`, for which the AC50 on Cytochrome P450 1A2 is 25.1 µM (inconclusive).

`Cc1cccc(C)c1N1CCN(S(=O)(=O)N2CCCCC2)CC1`: in data set [1], the EC50 was 5.58 µM (active). On to `COc1ccc(N(CC(=O)O)N=O)cc1`, for which the AC50 result at Cytochrome P450 2C19 was “inconclusive”; on Cytochrome P450 1A2, 0.0251 µM (inconclusive).

Regarding `COc1ccc(Cn2nnnc2C(c2ccccn2)N2CCN(c3cc(Cl)ccc3C)CC2)cc1` (configuration not stated), the results for the EC50 in data set [2] and in data set [3] were 2.04 µM (active) and > 60 µM (not active), respectively. For `CCN1C(=S)SC(=O)C1=C1C=C(C)N(CCO)C(C)=C1`, the EC50 in data set [4] is 0.102 µM (active). In the case of `COc1ccc(C2=CC(c3cccc(OC)c3)n3nnnc3N2)cc1` (configuration not stated), the EC50 in data set [1] is > 53 µM (inactive). Turning to `Cn1cc(-c2nc3cnc(Oc4ccccc4)nc3n(C)c2=O)c2ccccc21`, the AC50 at Cytochrome P450 1A2 was 12.6 µM (inconclusive). On to `COc1cc(=O)n(C)c2c(OC[C@@H](O)C(C)(C)O)cccc12`, for which the AC50 at Cytochrome P450 1A2 was 20 µM (inconclusive) and 12.6 µM (inconclusive). On to `COC(=O)Cn1ncn2c(cc3oc(C)cc32)c1=O`, for which the EC50 was 2.68 µM (active) in data set [4], 56 µM (active) in data set [5] and 14.7 µM (active) with H4. `COc1cccc2nc(O)c(-c3ccccc3)cc12`: the values for the EC50 in data set [4] and in data set [5] were 9.22 µM (active) and 8.86 µM (active), respectively.

`CN1CCN(NC(=O)Nc2cccc(Cl)c2Cl)CC1`: the EC50 in data set [2] is 0.184 µM (active); in data set [3], > 60 µM (not active). For `Cc1cc(C)c(C(=O)Cn2cnc3cc([N+](=O)[O-])ccc3c2=O)cc1C`, the figures for the EC50 in data set [2] and in data set [3] were 1.61 µM (active) and > 60 µM (not active), respectively. As for `COc1ccc(C(=O)NCC(=O)N2CCN(C(=O)c3ccco3)CC2)cc1`, the EC50 in data set [1] was > 53 µM (inactive). Turning to `COc1ccc([N+](=O)[O-])c2c1CCN2C(=O)CC[C@H](N)C(=O)O`, at Cytochrome P450 1A2, the AC50 was 31.6 µM (inconclusive). On to `O=C(c1ccc(Cl)cc1)C1CCCN(Cc2cccn2-c2cccnc2)C1` (configuration not stated), for which the EC50 in data set [2] is 2.58 µM (active); in data set [3], > 60 µM (not active). On to `O=C(c1ccc2nc3ccc(Cl)cc3c(=O)n2c1)N1CCOCC1`, for which, on Cytochrome P450 1A2, the AC50 is 14.1 µM (inconclusive). Consider `CCNc1ncc2nc(-c3cccs3)c(=O)n(-c3ccccc3)c2n1`, for which, at Cytochrome P450 1A2, the AC50 is 1.58 µM (inconclusive). With `COc1ccc(N(CC(=O)NCCC2=CCCCC2)S(=O)(=O)c2ccc(C)cc2)cc1`, the values for the EC50 in data set [2] and in data set [3] were 2.31 µM (active) and > 30 µM (not active), respectively. In the case of `O=C(CCc1nnc(C2CCCCC2)o1)N1CCN(c2ccccc2F)CC1`, the EC50 in data set [4] was 9.13 µM (active); in data set [5] it was 11.8 µM (active). For the compound `COc1ccc(CN2CCn3ncc(C(=O)Nc4ccccc4)c3C2=O)cc1`, the EC50 in data set [4] was 14.2 µM (active); in data set [5] it was 66.6 µM (active); with H4, 18.9 µM (inconclusive). Take `Cc1ccc(NC(=O)C2CCN(c3cnccn3)CC2)cc1`: the values for the EC50 in data set [2] and in data set [3] were 0.9 µM (active) and > 60 µM (not active), respectively. Take `Cc1c(NC2=N/C(=N\C(=O)c3cccs3)c3ccccc32)c(=O)n(-c2ccccc2)n1C`: the EC50 in data set [1] is 5.98 µM (active). Consider `Cc1cc(NS(=O)(=O)c2ccc(NC(=O)c3cccc(OC(F)F)c3)cc2)nc(C)n1`, for which, in data set [1], the EC50 was > 53 µM (inactive). On to `CCOCCCN1CC(C(=O)NCCc2ccc(C)cc2)CC1=O` (configuration not stated), for which the AC50 on Cytochrome P450 2C19 (read-out: AC50) was 25.1 µM (inconclusive). Consider `Cc1cc(C)n(CCc2nc(-c3cc4ccccc4o3)cs2)n1`, for which the EC50 was 7.17 µM (active) in data set [4], 9.04 µM (active) in data set [5] and 60.2 µM (active) with H4. In the case of `Cc1c(C)n(CCCN(C)C)c2ncnc(NCc3ccccc3)c12`, the results for the EC50 in data set [2] and in data set [3] were 0.911 µM (active) and > 60 µM (not active), respectively. For the compound `CCOc1ccc2nc(O)c(CN(CCc3ccccc3)C(=O)N3CCOCC3)cc2c1`, at Cytochrome P450 1A2, the AC50 was 17.8 µM (inconclusive). As for `O=C(/C=C/c1ccco1)NCCc1ccccc1`, the values for the EC50 (in data set [4]; in data set [5]; with H4) were 10.9 µM (active), 14.5 µM (active) and > 120 µM (not active), respectively. `CCOc1ccc(NC(=O)c2ccc(Br)o2)c([N+](=O)[O-])c1`: on Cytochrome P450 1A2, the AC50 was 3.55 µM (inconclusive).

`O=[N+]([O-])c1ccc(-[n+]2c(-c3ccccc3)cc(-c3ccccc3)cc2-c2ccccc2)cc1.[O-][Cl+3]([O-])([O-])[O-]`: the EC50 in data set [2] was 0.264 µM (active); in data set [3], > 60 µM (not active); in data set [1], 5.02 µM (active). For `CN1CCc2c(sc3c2C(=O)NC(c2cccc(OC(=O)c4cccs4)c2)N3)C1` (configuration not stated), the EC50 in data set [4] was 6.46 µM (active); in data set [5], 8.11 µM (active); with H4, 40 µM (active). On to `O=C(Nc1ncc(S(=O)(=O)c2ccc([N+](=O)[O-])cc2)s1)c1ccccc1F`, for which the EC50 in data set [1] was 4.81 µM (active). `O=c1c2c3c(sc2nc2n1N=C(c1cccs1)CS2)CCCC3`: in the data set on H4, the EC50 is 0.118 µM (active). Regarding `COc1ccc(C(=O)NCCn2ccc3ccccc32)cc1`, the EC50 was 0.185 µM (active) in data set [4], 0.132 µM (active) in data set [5] and 0.488 µM (active) with H4. For the compound `CCOC(=O)CSc1nc(N2CCOCC2)c2c(c1C#N)CC(C)(C)N(C)C2`, the EC50 in data set [1] is > 53 µM (inactive). For the compound `CC1(C)CN=C(N(Cc2ccccc2)C(=O)Nc2ccccc2)S1`, the EC50 in data set [4] was 12.5 µM (active); in data set [5], 13.1 µM (active); in the data set on H4 it was 18.8 µM (active). Regarding `CC(=O)c1ccc(S(=O)(=O)N(Cc2cc3cc4c(cc3nc2O)OCCO4)CC2CCCO2)cc1` (configuration not stated), the EC50 is 13.6 µM (active) in data set [4], 6.68 µM (active) in data set [5] and 26.3 µM (active) with H4. As to `NC(=O)N/N=C\c1ccc([N+](=O)[O-])o1`, the AC50 on Cytochrome P450 1A2 was 12.6 µM (inconclusive).

Consider `Cc1nc2ncnn2c(C)c1CCC(=O)NC(C)c1ccc2c(c1)OCCO2` (configuration not stated), for which, at Cytochrome P450 2C19 (read-out: AC50), the AC50 is 8.91 µM (inconclusive).

Regarding `Fc1ccccc1OCCSc1[nH]cnc2ncnc1-2`, the EC50 in data set [4] is > 120 µM (not active); in data set [5] it was 13 µM (active); with H4 it was 14.9 µM (active). As to `Cc1nnc(O)n1-c1cccc(C(F)(F)F)c1`, the AC50 at Cytochrome P450 1A2 was 5.62 µM (inconclusive).

In the case of `O=C(N/N=C/c1ccc([N+](=O)[O-])cc1)c1ccc(COc2ccccc2-c2ccccc2)cc1`, the EC50 was 1.55 µM (active) in data set [2] and > 30 µM (not active) in data set [3]. As for `COc1cc(/C=N/NC2=NC(=O)C(CC(=O)O)S2)ccc1OCc1cccc(Cl)c1` (configuration not stated), the EC50 is 6.12 µM (active) in data set [4], 10.1 µM (active) in data set [5] and 19.7 µM (active) in the data set with H4.

`Cc1cccc2c1OCC/C2=N\NC(=O)COc1ccccc1Cl`: the AC50 at Cytochrome P450 2C19 (read-out: AC50) was 0.708 µM (inconclusive). Consider `O=C1C=C(c2ccc3[nH]ccc3c2)CCC1`, for which the EC50 is 16 µM (active) in data set [4], 46.4 µM (active) in data set [5] and 9.94 µM (active) in the data set on H4.

Consider `Cc1ccc(NCc2ccccc2)cc1` [N-BENZYL-4-METHYLANILINE], for which the EC50 was 5.25 µM (active) in data set [2] and > 60 µM (not active) in data set [3].
